Assay [1] has as its system phosphorylated AKT Ser473 (pAKT S473), mTORC2 activity, PC3 cells. The experiment in a line: mTOR target engagement assay, immunofluorescent cell-based, pAKT S473 readout (mTORC2 activity). The conditions noted are these: Homo sapiens. The essentials: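 After blocking, cells were stained overnight at 4 °C with anti-pAKT S473 antibody, then a fluorescent secondary; inhibition was read as reduced fluorescence intensity.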

The subject of assay [2] is phosphorylated 4E-BP1 Thr37/46 (p4E-BP1 Thr37/46), mTORC1 activity, PC3 cells. The experiment in a line: mTOR target engagement assay, immunofluorescent cell-based, p4E-BP1 Thr37/46 readout (mTORC1 activity). To be noted: Homo sapiens, read-out: p4E-BP1 Thr37/46 IC50. In a few lines: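 Cell-based immunofluorescence in PC3 cells: serially diluted compounds (0.25% DMSO, 5% FBS) applied for ninety minutes at 37° C before fixation and overnight 4° C staining of p4E-BP1 Thr37/46. Untreated DMSO wells set maximal phosphorylation; IC50 obtained by logistic fitting.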

[3] abbreviates: PC-3, PC3 cells, compound treatment ninety minutes at 37° C.

These results are taken from patent US9227971B2, “Pyrazolo[1,5-a]pyrimidine compounds as mTOR inhibitors” (Merck Sharp & Dohme Corp., priority 2010, dated 2016).

Molecules are shown by their SMILES. Read-outs that look alike come from different tables or passages of the source.

Take `CS(=O)(=O)c1c([C@]2(O)C[C@H]3CC[C@@H](C2)N3C(=O)c2nnc[nH]2)nc2c(-c3ccc(-c4ccccc4)nc3)cnn2c1N` [Compound 8.22, ((1R,3r,5S)-3-(7-amino-6-(methylsulfonyl)-3-(6-phenylpyridin-3-yl)pyrazolo[1,5-a]pyrimidin-5-yl)-3-hydroxy-8-azabicyclo[3.2.1]octan-8-yl)(4H-1,2,4-triazol-3-yl)methanone]: the IC50 lay in the range of 100 to 1000 nM in assay [1] (PC-3, PC3 cells) and 1000 to 10000 nM in assay [2] (PC-3, PC3 cells).
With `Cc1nnc(C(=O)N2[C@@H]3CC[C@H]2C[C@H](c2nc4c(-c5ccc(-c6ccc(F)cc6F)nc5)cnn4c(N)c2S(C)(=O)=O)C3)[nH]1` [Compound 3.127, ((1R,3s,5S)-3-(7-amino-3-(6-(2,4-difluorophenyl)pyridin-3-yl)-6-(methylsulfonyl)pyrazolo[1,5-a]pyrimidin-5-yl)-8-azabicyclo[3.2.1]octan-8-yl)(5-methyl-4H-1,2,4-triazol-3-yl)methanone], the IC50 in assay [1] (PC-3, Table 3-1, PC3 cells) was in the range of 100 to 1000 nM; in assay [2] (PC-3, Table 3-1, PC3 cells), 1 to 100 nM.
`CC(=O)c1c([C@@H]2C[C@H]3CC[C@@H](C2)N3C(=O)c2nnc(C)[nH]2)nc2c(-c3ccc(-c4ccc(F)cc4F)nc3)cnn2c1N` [Compound 1.1.165, 1-(7-amino-3-(6-(2,4-difluorophenyl)pyridin-3-yl)-5-((1R,3s,5S)-8-(5-methyl-4H-1,2,4-triazole-3-carbonyl)-8-azabicyclo[3.2.1]octan-3-yl)pyrazolo[1,5-a]pyrimidin-6-yl)ethanone]: the IC50 in assay [1] (setting [3]) and in assay [2] (setting [3]) was 1 to 100 nM each time.
`CS(=O)(=O)c1c([C@H]2CC3CC[C@H](C2)N3C(=O)c2nnc[nH]2)nc2c(-c3cnc4c(c3)CCCC4O)cnn2c1N` (stereo partly drawn) [Compound 7.53, ((1R,3s,5S)-3-(7-amino-3-(8-hydroxy-5,6,7,8-tetrahydroquinolin-3-yl)-6-(methylsulfonyl)pyrazolo [1,5-a]pyrimidin-5-yl)-8-azabicyclo[3.2.1]octan-8-yl)(4H-1,2,4-triazol-3-yl)methanone]: the IC50 in assay [1] (PC-3, PC3 cells) fell in the range of 100 to 1000 nM; in assay [2] (PC-3, PC3 cells) it was 100 to 1000 nM.
Regarding `CS(=O)(=O)c1c([C@@H]2C[C@H]3CC[C@@H](C2)N3C(N)=O)nc2c(-c3ccc(-c4ccc(F)cc4)nc3)cnn2c1N` [Compound 3.126, (1R,3s,5S)-3-(7-amino-3-(6-(4-fluorophenyl)pyridin-3-yl)-6-(methylsulfonyl)pyrazolo[1,5-a]pyrimidin-5-yl)-8-azabicyclo[3.2.1]octane-8-carboxamide], the IC50 in assay [1] (PC-3, Table 3-1, PC3 cells) was 1 to 100 nM; in assay [2] (PC-3, Table 3-1, PC3 cells), 1 to 100 nM.
Regarding `CC(=O)c1c([C@@H]2C[C@H]3CC[C@@H](C2)N3C(=O)C(C)F)nc2c(-c3ccc(-c4ncc[nH]4)nc3)cnn2c1N` (stereo partly drawn) [Compound 6.23, 1-((1R,3s,5S)-3-(3-(6-(1H-imidazol-2-yl)pyridin-3-yl)-6-acetyl-7-aminopyrazolo[1,5-a]pyrimidin-5-yl)-8-azabicyclo[3.2.1]octan-8-yl)-2-fluoropropan-1-one], the IC50 was 1 to 100 nM in assay [1] (PC-3, Table 6-1, PC3 cells) and 100 to 1000 nM in assay [2] (PC-3, Table 6-1, PC3 cells).
